Reference: patent publication US12491225B2, “Antiviral compositions and methods” (RALCO NUTRITION, INC., priority 2014, dated 2025)

How the values were obtained:
Conditions in all cases: trolox equivalents
ORAC, peroxyl radical = test: ORAC, peroxyl radical
Description: (§1) Antiviral EO compositions as described herein can provide antioxidant properties to a subject or host system. Antioxidants can enhance neutrophil function, improve fertility, reduce heat stress related pregnancy losses, reduce frequency of retained placentas, and reduce metritis in dairy cows. Oxygen radical absorbance capacity (ORAC) is the ability of a compound or composition to act as a proton donor and reducing agent for oxygen radicals. In particular, ORAC measures the ability of a compound or composition to act as a reducing agent for peroxyl radicals, hydroxyl radicals, peroxynitrite, superoxide anion, and singlet oxygen, the five most damaging oxygen radicals.
(§2) ORAC capabilities of EO compositions were tested Brunswick Labs, Massachusetts. Table 20 illustrates the antioxidant ability of several embodiments provided herein, as compared to an industry standard antioxidant, Vitamin E. Results are expressed as trolox equivalents (TE/100 g) for each composition: […]

ORAC, hydroxyl radical = test: ORAC, hydroxyl radical
Description: as §1, §2

ORAC, peroxynitrite = test: ORAC, peroxynitrite
Description: as §1, §2

ORAC, superoxide anion = test: ORAC, superoxide anion
Description: as §1, §2

ORAC, singlet oxygen = test: ORAC, singlet oxygen
Description: as §1, §2

Total ORAC = test: Total ORAC
Description: as §1, §2

## Arabinogalactan
ORAC, peroxyl radical
  ORAC, Peroxyl radical: 20600 TE/100 g
ORAC, hydroxyl radical
  ORAC, Hydroxyl radical: 46400 TE/100 g
ORAC, peroxynitrite
  ORAC, Peroxynitrite: 1200 TE/100 g
ORAC, superoxide anion
  ORAC, Superoxide anion: 16600 TE/100 g
ORAC, singlet oxygen
  ORAC, Singlet oxygen: 11600 TE/100 g
Total ORAC
  Total ORAC: 96400 TE/100 g

## Vitamin E [Natural Vitamin E]
ORAC, peroxyl radical
  ORAC, Peroxyl radical: 2100 TE/100 g
ORAC, hydroxyl radical
  ORAC, Hydroxyl radical: 0 TE/100 g
ORAC, peroxynitrite
  ORAC, Peroxynitrite: 0 TE/100 g
ORAC, superoxide anion
  ORAC, Superoxide anion: 0 TE/100 g
ORAC, singlet oxygen
  ORAC, Singlet oxygen: 37100 TE/100 g
Total ORAC
  Total ORAC: 39200 TE/100 g
